Experimental findings from patent US20150291658A1, “NOVEL CHONDRAMIDE DERIVATIVES” (HELMOLTZ-ZENTRUM FÜR INFEKTIONSFORSCHUNG, priority 2012, published 2015) are described below.

Each structure is given as a SMILES string.

In data set [1] the test system is KB-3.1: human cervical carcinoma. Kind of data set: Growth inhibition experiments (GI50), KB-3.1. To be noted: Table 1; KB-3.1. The data set is classed as cell-based.
In data set [2] the test system is HCT-116 colon carcinoma cell line. Nature of the data set: Growth inhibition experiments (MTT, 5 d), HCT-116. The data set is classed as cell-based, human. As to conditions: Table 1; HCT-116; read-out: GI50 values HCT-116. How it is done:
(§1) Cells were seeded at 6×10^3 cells per well of 96-well plates (Corning CellBind®) in 180 μl complete medium and directly treated with chondramides dissolved in methanol in a serial dilution. Each compound was tested in duplicate for 5 d, as well as the internal methanol control. After 5 d incubation, 20 μl of 5 mg/ml MTT (Mosmann, T. (1983). Rapid Colorimetric Assay for Cellular Growth and Survival: Application to Proliferation and Cytotoxicity Assays. J. Immunol. Meth. 65, 55-63) in PBS was added per well and it was further incubated for 2 h at 37° C. The medium was then discarded and cells were washed with 100 μl PBS before adding 100 μl 2-propanol/10 N HCl (250:1) in order to dissolve formazan granules. The absorbance at 570 nm was measured using a microplate reader (EL808, Bio-Tek Instruments Inc.), and cell viability was expressed as percentage relative to the respective methanol control. GI50 values were obtained by sigmoidal curve fitting. Testing of fractions was performed likewise using 1.2×10^4 cells per well. Samples were dissolved in cell culture medium and cells were treated for 2 d before adding MTT. Viability was expressed relative to the untreated control.

In data set [3] the test system is human U-2 OS osteosarcoma cell line. Kind of data set: Growth inhibition experiments (MTT, 5 d), U-2 OS. It is filed as cell-based. As to conditions: Table 1; U-2 OS; read-out: GI50 values U-2 OS. As for the experimental part: as §1
Data set [4] concerns panel of cell lines derived from various origins and tissues (cancer cell lines, non-cancerous cell lines, primary cells). Nature of the data set: Growth inhibition experiments (MTT, 5 d), panel of cell lines. It is filed as cell-based. As to conditions: GI50-based comparison, panel of cell lines. As for the experimental part:
First, the compounds were tested on a small panel of cell lines derived from various origins and tissues. GI50 values were compared to those determined using chondramides A˜C (see Table 1).
(§2) Cell lines were obtained from the American Type Culture Collection (ATCC) and the German Collection of Microorganisms and Cell Cultures (Deutsche Sammlung für Mikroorganismen and Zellkulturen, DSMZ), and HUVEC (single donor) were purchased from PromoCell. Cells were cultured under the conditions recommended by the respective depositor in a standard humidified incubator at 37° C. with 5% CO2.
as §1
These compounds were profiled regarding their growth inhibitory potential in a panel of cancer cell lines. Natural chondramide A was used as reference:
Biological evaluation of group A derivatives. GI50 values [nM] were determined in a small panel of cancer cell lines.

For data set [5], the target named is T1, pyrene-labeled rabbit muscle actin (Oryctolagus cuniculus, UniProt P68135).
T1 construct: pyrene-labeled rabbit muscle actin; purchased Cytoskeleton, Inc; host or cells: rabbit muscle (tissue-derived; inferred from the name)
Kind of data set: Actin polymerization assay (pyrene actin fluorescence). It is filed as biochemical. As to conditions: 20 μM derivative, 5 μM pyrene actin, non-polymerizing buffer, followed over 85 min. How it is done:
A final concentration of 20 μM for each derivative was chosen and polymerization was followed over 85 min.
Fluorescence-based actin polymerization assays were performed using pyrene muscle actin (Cytoskeleton, Inc.) according to the supplier's protocol. Chondramides were dissolved in non-polymerizing buffer (5 mM Tris-HCl pH 8.0, 0.2 mM CaCl2, 0.2 mM ATP, 1 mM DTT) and mixed with pyrene actin diluted in the same buffer to give a final concentration of 20 μM chondramide and 5 μM actin. Samples were prepared in black, low-volume 384-well plates (Corning, NBS™ surface). The fluorescence at 405 nm (excitation at 360 nm) was scanned every 30 s for 85 min at 37° C. on a microplate reader (Spectramax M5^e, Molecular Devices). Experiments were performed in duplicates and the average relative fluorescence of polymerizing pyrene actin is given. Slopes were calculated in the linear range of kinetic measurements.

Data set [6] deals with HUVEC, human umbilical vein endothelial cells (primary cells). Kind of data set: Growth inhibition experiments (MTT, 5 d), HUVEC. As to conditions: Table 1. The data set is classed as cell-based.
Source text: (§3) With primary cells (HUVEC, human umbilical vein endothelial cells) and the fibroblast cell line MRC5 this is not the case. Whereas chondramides A˜C are comparably active on both, cancer and non-cancerous cells, brominated chondramide C3 analogs are on average by factor 2-4 less toxic for non-cancerous cells. Accordingly they show a higher selectivity.
as §2, §1

The subject of a further data set is L-929. Kind of data set: Growth inhibition experiments (GI50), L-929. It is filed as cell-based. To be noted: Table 1.
For data set [7], the system named is multidrug resistant (MDR) KB-V.1 cell line. Kind of data set: Growth inhibition experiments (MTT, 5 d), KB-V.1. It is filed as cell-based. As to conditions: Table 1. As for the experimental part:
Cancer Inst. 90, 1559-1563). […] The same applies for most novel derivatives, solely a hydroxyl group at C2′ of the polyketide segment instead of methoxy or simply hydrogen leads to an approximately 10-fold reduced potency. GI50 values of glycosylated derivatives were not determinable precisely in the assay's concentration range.
as §1

The test system of data set [8] is fibroblast cell line MRC5. Kind of data set: Growth inhibition experiments (MTT, 5 d), MRC5. It is filed as cell-based, human. To be noted: Table 1. How it is done: as §3, §1

Take `C/C1=C\CCOC(=O)C[C@H](c2ccc(O)c(Cl)c2)NC(=O)[C@@H](Cc2c(Cl)[nH]c3ccccc23)N(C)C(=O)[C@H](C)NC(=O)CC1`: the melting point (in general, the temperature, or range, at which the solid turns liquid) lay within 135 to 139 °C.
Same read-out and setting: to `C/C1=C\CCOC(=O)C[C@H](c2ccc(O)c(Br)c2)NC(=O)[C@@H](Cc2c[nH]c3ccccc23)N(C)C(=O)[C@H](C)NC(=O)CC1` belongs 129 to 132 °C.
Consider `C/C1=C\CCOC(=O)C[C@H](c2ccc(O)c(Cl)c2)NC(=O)[C@@H](Cc2c[nH]c3ccccc23)N(C)C(=O)[C@H](C)NC(=O)CC1`, for which the melting point lay within 122 to 126 °C.
Take `COC1C(=O)OC(C)C(C)C=C(C)CC(C)C(=O)NC(C)C(=O)N(C)C(Cc2c[nH]c3ccccc23)C(=O)NC1c1ccc(O)c(Cl)c1` (stereo not drawn) [Chondramide A3]: in data set [1], the “GI50 values KB-3.1” value turned out to be 63.5 ± 12.6 nM. Also, the concentration for 50% growth inhibition (GI50) (in general, the concentration that inhibits growth by half) in data set [2] is 28.6 ± 3.9 nM; in data set [3] it was 46.7 ± 6.5 nM; in data set [6], 50.5 ± 5.6 nM; in the data set with L-929, 72.8 ± 3.6 nM; in data set [8], 38 ± 2.8 nM. Further, in data set [4], the “growth inhibitory activity in cell lines (in words, compared to chondramides A~C / other derivatives)” value was “comparable to chondramides A˜C”. In addition, in data set [5], the “actin-polymerizing effect (G-actin polymerization in vitro)” value was “significantly reduced actin-polymerizing effect”. Moreover, the “GI50 values KB-V.1” value in data set [7] stood at 85.7 ± 1.4 nM.
Consider `COC1C(=O)OC(C)C(C)C=C(C)CC(C)C(=O)NC(C)C(=O)N(C)C(Cc2c(Cl)[nH]c3ccccc23)C(=O)NC1c1ccc(OP(=O)(O)O)cc1` (stereo not drawn) [Chondramide A6], for which the “GI50 values KB-3.1” value in [1] amounted to 49.3 ± 7.6 nM. The concentration for 50% growth inhibition (GI50) turned out to be 60.9 ± 3.5 nM in data set [2]; 51.6 ± 4.6 nM in data set [3]; 67.7 ± 10.4 nM in data set [6]; 44.6 ± 5.5 nM in the data set on L-929; 25.9 ± 1.5 nM in [8]. Moreover, the “growth inhibitory activity in cell lines (in words, compared to chondramides A~C / other derivatives)” value in [4] is “comparable to chondramides A˜C”. Moreover, the “actin-polymerizing effect (G-actin polymerization in vitro)” value in data set [5] is “significantly reduced actin-polymerizing effect”. Besides, in [7], the “GI50 values KB-V.1” value is reported as 23.1 ± 1.5 nM.
